The values that follow come from patent US20140193338A1, “COMPOUNDS FOR USE IN IMAGING, DIAGNOSING AND/OR TREATMENT OF DISEASES OF THE CENTRAL NERVOUS SYSTEM” (PIRAMAL IMAGING SA, priority 2011, published 2014).

In series [1] the test system is MAO-B. In words: PET brain time activity curves (SUV) in cynomolgus monkeys. Format: in vivo, cynomolgus monkey. The method, then: One monkey weighing 6.3 kg was injected i.v. with 163 MBq [^18F]rasagiline (compound F) under sevofluorane anaesthesia.
Two cynomolgus monkeys weighting 5.25 and 6.2 kg, respectively were investigated. They were injected i.v. under sevofluorane anaesthesia with 168 MBq and 174 MBq [^18F],(^2H2)rasagiline (1), respectively.

Series [2] in a line: Blood radioactivity / metabolite profile by radio-HPLC after tracer injection. It counts as in vivo, cynomolgus monkey. Particulars: for number of ^18F labelled metabolites detected: plasma, radio-HPLC, over the time of the investigation. The source says: In addition, the blood radioactivity profiles have been monitored over time using radio-HPLC measurements and were decay corrected (d.c.) (FIGS. 4 and 5).

The target of series [3] is T1, MAO-B (Homo sapiens, UniProt P27338).
T1 construct: Autoradiography using [^18F]rasagiline on human brain slices from a healthy subject; from tissue; host or cells: human brain hemisphere cryosections (100 µm)
T1 sequence (P27338 1-520): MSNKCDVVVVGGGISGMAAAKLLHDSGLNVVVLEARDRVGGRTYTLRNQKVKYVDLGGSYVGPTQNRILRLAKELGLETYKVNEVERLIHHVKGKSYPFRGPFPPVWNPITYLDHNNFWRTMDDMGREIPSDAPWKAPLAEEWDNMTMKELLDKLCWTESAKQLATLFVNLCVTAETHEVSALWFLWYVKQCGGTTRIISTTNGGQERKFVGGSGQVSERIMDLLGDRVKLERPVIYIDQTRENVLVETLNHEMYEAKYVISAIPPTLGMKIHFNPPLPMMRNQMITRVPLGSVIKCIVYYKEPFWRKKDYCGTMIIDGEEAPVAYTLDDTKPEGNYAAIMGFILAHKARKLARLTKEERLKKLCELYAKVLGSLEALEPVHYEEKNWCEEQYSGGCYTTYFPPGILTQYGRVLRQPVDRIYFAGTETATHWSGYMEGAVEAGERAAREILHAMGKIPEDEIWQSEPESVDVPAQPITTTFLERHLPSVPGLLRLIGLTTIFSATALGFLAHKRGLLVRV
The experiment in a line: Autoradiography with [^18F]rasagiline on human brain sections, blocking with excess inhibitor. Format: binding. The method, then: Binding of the [^18F]rasagiline (compound of formula F) was investigated on human brain sections from normal subjects using a standard protocol.
In brief, whole brain hemispheres were cut at a 100 μm thickness in a Cryocut (Leica, Germany), thaw mounted onto gelatine glass slides and kept at −25° C. before use. Thereafter, the slides containing the regions of interest (e.g. hippocampus, thalamus) were removed and brought to room temperature. The sections were incubated with 0.2 MBq/mL [^18F] compound F in 50 mM TRIS/0.1% BSA (pH 7.4) with salts (120 mM NaCl, 5 mM KCl, 1 mM CaCl2, 1 mM MgCl2) for 90 min at room temperature and washed three times for 5 min each in 50 mM TRIS (pH 7.4). The sections were dipped once into ice cold distilled water, dried at room temperature and exposed to PhosphorImager plates (FUJI BAS 5000) overnight.

[4] abbreviates: pre-treated with 0.5 mg/kg (L)-deprenyl.

“Also recorded” adds a separate entry of the source.

As for `[2H]C([2H])(C#C)N[C@H]1c2ccccc2C[C@@H]1[18F]` [compound 1, (1S,2S)-2-[^18F]fluoro-N-[(1,1-^2H2)prop-2-yn-1-yl]indan-1-amine], the “initial uptake in whole brain relative to [^18F]rasagiline (compound F)” value in the series with MAO-B [1] (i.v., PET) is “comparable to that of [^18F]rasagiline (compound F)”. Besides, in the series with MAO-B [1] (setting [4]), the “decrease in uptake after deprenyl pre-treatment, Cerebellum” value is 46%; the “decrease in uptake after deprenyl pre-treatment, Striatum” value was determined as 45%; the “decrease in uptake after deprenyl pre-treatment, Thalamus” value is listed as 47%; the “decrease in uptake after deprenyl pre-treatment, cortex” value was determined as 40%. The “brain elimination behaviour after initial uptake” value in the series with MAO-B [1] (whole brain TAC) is reported as “eliminated in a manner resembling that of a reversible ligand”. The “metabolite corrected blood radioactivity time curve compared to the non-deuterated compound” value in series [2] (decay corrected) is “slower elimination; also recorded: increased blood radioactivity over time”. Also, the “number of ^18F labelled metabolites detected” value in series [2] is on record as “two”.

For the compound `C#CCN[C@H]1c2ccccc2C[C@@H]1[18F]` [compound F, reference compound], on MAO-B [3] (conclusion from blocking experiments), the “specificity of the ligand” value was “specifically interacting with MAO-B”. Moreover, the “autoradiography signal in brain regions with known MAO-B activity” value on MAO-B [3] (human brain slices, healthy subject, globus pallidus, putamen, caudate, thalamus, hippocampus, 0.2 MBq/mL, 90 min) is on record as “high signal intensity”. Also, in the series on MAO-B [1] (i.v., PET), the “initial brain uptake, striatal (caudate and putamen) and thalamic ROI” value is “ca. 400 % SUV”; the “initial brain uptake, whole brain” value is reported as “ca. 280 % SUV”. Also, the “increase of whole brain signal over time” value with MAO-B [1] (until the end of the observation time) is “about 35 % SUV”. Moreover, in the series with MAO-B [1] (within 15 minutes), the “whole brain level after slight elimination” value was “ca. 225 % SUV”. For the same compound, in series [2], the “number of ^18F labelled metabolites detected” value is recorded as “eight”.

Regarding `C#CCN[C@@H]1CCc2ccccc21` [rasagiline], the “blocking of the [^18F]rasagiline (compound F) autoradiography signal” value on MAO-B [3] (excess (10 μM) of the inhibitor in the incubation solution) is on record as “completely blocked”.
